Experimental data: patent US9938231B2, “Liquid arylbenzoyl benzoic acid ester derivatives for energy curable compositions” (SUN CHEMICAL CORPORATION, priority 2014, dated 2018)

Experiments:
Assay type in all cases: physicochemical
[1] = Solubility stability of photoinitiator blends; details: for Behaviour of the solution upon cooling to room temperature: 1:1 mixture with dimethylaminobenzoic acid ethylhexyl ester, dissolved at 50° C.
Protocol: A 1:1 mixture in weight of 4-phenylbenzoyl benzoic acid ethylhexyl ester and dimethylaminobenzoic acid ethylhexyl ester was transformed into a solution by stirring at room temperature. […] As a comparison experiment, a 1:1 mixture of 4-phenylbenzophenone and dimethylaminobenzoic acid ethylhexyl ester was turned into a solution at elevated temperature of 50° C.

[2] = Solubility in di-pentaerythritol hexaacrylate (DPHA); details: for Solubility in DPHA: stirred 30 minutes at room temperature
Protocol: 4-phenylbenzophenone, 4-phenylbenzoyl benzoic acid ethylhexyl ester, and 4-phenylbenzoyl benzoic acid amyl ester were each added separately to the multifunctional acrylate di-pentaerythritol hexaacrylate (DPHA, Miwon Company) in amounts of 2, 4, 6, and 8 weight %, and stirred for 30 minutes at room temperature.

[3] = Solubility in propoxylated pentaerythritol tetraacrylate SR 494 LM (PPTTA); details: for Solubility in PPTTA: stirred 30 minutes at room temperature
Protocol: 4-phenylbenzophenone, 4-phenylbenzoyl benzoic acid ethylhexyl ester, and 4-phenylbenzoyl benzoic acid amyl ester were each separately added to the multifunctional acrylate propoxylated pentaerythritol tetraacrylate (SR 494 LM, Sartomer company) (PPTTA) in amounts of 2, 4, 6, and 8 weight % and stirred for 30 minutes at room temperature.

[4] = UV-spectra measurement (absorption maximum, molar extinction coefficient); details: ethyl acetate; for Molar extinction coefficient: at absorption maximum
Protocol: Spectra were acquired using a Unicam UV-2 UV/VIS spectrophotometer. All absorption spectra were obtained using 1 cm cuvettes, scanning within the 200-800 nm range. Solutions were prepared in a 100 cm^3 volumetric flask, and if required, subsequently diluted so that a maximum absorbance of less than 2 was obtained. From the absorption the molar extinction coefficient e was calculated in liter·mol^−1·cm^−1.

[5] = Viscosity of the neat ester; details: at 25° C.

SMILES	Behaviour of the solution upon cooling to room temperature [1]	Solubility in DPHA ([2]; 2 weight % in DPHA)	Solubility in DPHA ([2]; 4 weight % in DPHA)	Solubility in DPHA ([2]; 6 weight % in DPHA)	Solubility in DPHA ([2]; 8 weight % in DPHA)	Solubility in PPTTA ([3]; 2 weight % in PPTTA)	Solubility in PPTTA ([3]; 4 weight % in PPTTA)	Solubility in PPTTA ([3]; 6 weight % in PPTTA)	Solubility in PPTTA ([3]; 8 weight % in PPTTA)	Solubility in DPHA compared with 4-phenyl benzophenone [2]	State of the solution at 5° C. ([1]; 1:1 mixture in weight with dimethylaminobenzoic acid ethylhexyl ester)	Solubility in PPTTA compared with 4-phenyl benzophenone [3]	Molar extinction coefficient [4]	Absorption maximum [4]	UV-spectroscopy: λ max [4]	Viscosity [5]
COC(=O)c1ccccc1C(=O)c1ccc(-c2ccccc2)cc1 [4-phenylbenzoyl benzoic acid methyl ester]	instability and precipitation	–	–	–	–	–	–	–	–	–	–	–	–	–	–	–
O=C(c1ccccc1)c1ccc(-c2ccccc2)cc1 [Example 1, 4-phenyl benzophenone, reference compound]	precipitated	solution	solution	Hazy- opaque	Solid residuals	solution	hazy	Solid residuals	Solid residuals	–	–	–	–	–	–	–
CCCCC(CC)COC(=O)c1ccccc1C(=O)c1ccc(-c2ccccc2)cc1 (stereo not shown) [Example 9, 4-Phenylbenzoyl Benzoic Acid Ethyl Hexyl Ester]	–	solution	solution	solution	solution	solution	solution	solution	solution	better solubility than 4-phenyl benzophenone	stayed liquid	better solubility than 4-phenyl benzophenone	20100 liter · mol^−1 · cm · ^−1	287 (ethyl acetate) nm	287 nm	12 Pa·s
CCCCCOC(=O)c1ccccc1C(=O)c1ccc(-c2ccccc2)cc1 [Example 10, 4-Phenylbenzoyl Benzoic Acid Amyl Ester]	–	solution	solution	solution	solution	solution	solution	solution	solution	better solubility than 4-phenyl benzophenone	–	better solubility than 4-phenyl benzophenone	–	–	286 nm	13 Pa·s
CCCCC(CC)COC(=O)c1ccccc1C(=O)c1ccc(-c2ccc(-c3ccccc3)cc2)cc1 (stereo not shown) [Example 12, 4-Terphenoyl Benzoic Acid Ethylhexyl Ester]	–	–	–	–	–	–	–	–	–	–	–	–	24900 liter · mol^−1 · cm · ^−1	309 (ethyl acetate) nm	309 nm	–
